The source of these data is patent US11225484B2, “Substituted octahydropyrrolo[3,4-b]pyrroles as antagonists of the muscarinic acetylcholine receptor M4” (Vanderbilt University, priority 2017, dated 2022).

In one experiment the target is T1, Rat M4 (Rattus norvegicus, UniProt P08485).
T1 construct: expressed in transfected cells; host or cells: CHO-K1 (ATCC), co-transfected with chimeric G protein Gqi5
T1 sequence (P08485 1-478): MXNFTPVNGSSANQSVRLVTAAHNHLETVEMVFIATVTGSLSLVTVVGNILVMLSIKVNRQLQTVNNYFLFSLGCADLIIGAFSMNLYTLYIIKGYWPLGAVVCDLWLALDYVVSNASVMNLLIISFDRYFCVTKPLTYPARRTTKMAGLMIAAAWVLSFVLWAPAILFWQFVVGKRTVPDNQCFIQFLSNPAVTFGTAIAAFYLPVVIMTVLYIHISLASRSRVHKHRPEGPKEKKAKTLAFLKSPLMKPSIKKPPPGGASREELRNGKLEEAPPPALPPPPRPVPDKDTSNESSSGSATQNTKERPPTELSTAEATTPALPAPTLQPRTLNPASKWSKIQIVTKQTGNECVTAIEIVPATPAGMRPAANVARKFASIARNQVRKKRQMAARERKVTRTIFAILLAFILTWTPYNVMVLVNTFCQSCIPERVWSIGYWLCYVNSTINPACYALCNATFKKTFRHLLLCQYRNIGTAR
The experiment in a line: mAChR M4 cell-based functional assay (calcium flux, rat M4/Gqi5/CHO cells). The note with it: for remaining activity at 30 µM: CHO, % ACh maximum at 30 μM, read-out: Emin (%) rat M4; for IC50: antagonist mode, decrease of the response to an EC80 concentration of acetylcholine, CHO-K1 cells with Gqi5. Here is the method:
(§1) Human or rat M4 cDNA, along with the chimeric G protein Gqi5, were transfected into Chinese hamster ovary (CHO-K1) cells purchased from the American Type Culture Collection using Lipofectamine2000. M4/Gqi5/CHO cells were grown in Ham's F-12 medium containing 10% heat-inactivated fetal bovine serum (FBS), 20 mM HEPES, 500 μg/mL G418 sulfate, and 200 μg/mL Hygromycin B.
(§2) For high throughput measurement of agonist-evoked increases in intracellular calcium, CHO-K1 cells stably expressing muscarinic receptors were plated in growth medium lacking G418 and hygromycin at 15,000 cells/20 μL/well in Greiner 384-well black-walled, tissue culture (TC)-treated, clear-bottom plates (VWR). Cells were incubated overnight at 37° C. and 5% CO2. The next day, cells were washed using an ELX 405 (BioTek) with assay buffer; the final volume was then aspirated to 20 μL. Next, 20 μL of a 2.3 μM stock of Fluo-4/acetoxymethyl ester (Invitrogen, Carlsbad, Calif.), prepared as a 2.3 mM stock in DMSO and mixed in a 1:1 ratio with 10% (w/v) Pluronic F-127 and diluted in assay buffer, was added to the wells and the cell plates were incubated for 50 min at 37° C. and 5% CO2. Dye was removed by washing with the ELX 405 and the final volume was aspirated to 20 μL. Compound master plates were formatted in a 10 point concentration-response curve (CRC) format (1:3 dilutions) in 100% DMSO with a starting concentration of 10 or 1 mM using a BRAVO liquid handler (Agilent). Test compound CRCs were then transferred to daughter plates (240 nL) using the Echo acoustic plate reformatter (Labcyte, Sunnyvale, Calif.) and then diluted into assay buffer (40 μL) to a 2× stock using a Thermo Fisher Combi (Thermo Fisher Scientific, Waltham, Mass.).
(§3) Calcium flux was measured using the Functional Drug Screening System (FDSS) 6000 or 7000 (Hamamatsu Corporation, Tokyo, Japan) as an increase in the fluorescent static ratio. Compounds were applied to cells (20 μL, 2×) using the automated system of the FDSS at 2 seconds into the protocol and the data were collected at 1 Hz. At 143 s, 10 μL of an EC20 concentration of the muscarinic receptor agonist acetylcholine was added (5×), followed by the addition of 12 μL of an EC80 concentration of acetylcholine at the 268 s time point (5×). Agonist activity was analyzed as a concentration-dependent increase in calcium mobilization upon compound addition. Positive allosteric modulator activity was analyzed as a concentration-dependent increase in the EC20 acetylcholine response. Antagonist activity was analyzed as a concentration-dependent decrease in the EC80 acetylcholine response for the purposes of the tables herein, an IC50 (inhibitory concentration 50) was calculated as a concentration-dependent decrease of the response elicited by an EC80 concentration of acetylcholine, Concentration-response curves were generated using a four-parameter logistical equation in XLFit curve fitting software (IDBS, Bridgewater, N.J.) for Excel (Microsoft, Redmond, Wash.) or Prism (GraphPad Software, Inc., San Diego, Calif.) or the Dotmatics software platform (Dotmatics, Bishop's Stortford, UK).
(§4) Compounds were synthesized as described above. Activity (IC50 and Emin) was determined in the mAChR M4 cell-based functional assay as described above and the data are shown in Table 2. The compound number corresponds to the compound numbers used in Examples 1-3.

A further experiment has as its target T2, Human M4 (Homo sapiens, UniProt P08173).
T2 construct: expressed in transfected cells; host or cells: CHO-K1 (ATCC), co-transfected with chimeric G protein Gqi5
T2 sequence (P08173 1-479): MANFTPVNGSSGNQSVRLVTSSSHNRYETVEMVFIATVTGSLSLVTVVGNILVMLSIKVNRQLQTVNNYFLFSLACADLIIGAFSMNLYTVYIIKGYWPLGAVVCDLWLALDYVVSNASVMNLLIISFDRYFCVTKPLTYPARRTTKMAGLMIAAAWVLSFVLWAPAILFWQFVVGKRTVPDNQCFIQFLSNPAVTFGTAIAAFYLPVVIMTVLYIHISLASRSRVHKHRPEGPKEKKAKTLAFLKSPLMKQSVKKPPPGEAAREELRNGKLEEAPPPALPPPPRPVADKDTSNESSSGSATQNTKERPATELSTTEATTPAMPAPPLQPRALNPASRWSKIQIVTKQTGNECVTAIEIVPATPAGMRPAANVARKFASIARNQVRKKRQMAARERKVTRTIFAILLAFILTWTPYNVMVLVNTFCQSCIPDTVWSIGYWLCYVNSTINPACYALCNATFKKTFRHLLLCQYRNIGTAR
The experiment in a line: mAChR M4 cell-based functional assay (calcium flux, human M4/Gqi5/CHO cells). The note with it: for remaining activity at 30 µM: CHO, % ACh maximum at 30 μM, read-out: Emin (%) human M4; for IC50: antagonist mode, decrease of the response to an EC80 concentration of acetylcholine, CHO-K1 cells with Gqi5. Here is the method: as §1, §2, §3, §4

What is called IC50 is the concentration that inhibits the measured activity by half. With `Cc1cnn(C)c1-c1ccc(N2CC[C@H]3CN(CC45CC6CC(CC(C6)C4)C5)C[C@H]32)nn1` [Compound 23, (3aS,6aS)-5-(adamantan-1-ylmethyl)-1-(6-(1,4-dimethyl-1H-pyrazol-5-yl)pyridazin-3-yl)octahydropyrrolo[3,4-b]pyrrole], the remaining activity at 30 µM amounted to 4.52% at Rat M4 and 3.91% at Human M4. Also, the values for the IC50 on Rat M4 and on Human M4 were 0.326 µM and 0.102 µM, respectively.

Consider `Cc1cnn(C)c1-c1ccc(N2CCC3CN(CC(C)c4ccccc4)CC32)nn1` (stereo not shown) [Compound 11, 1-(6-(1,4-dimethyl-1H-pyrazol-5-yl)pyridazin-3-yl)-5-(2-phenylpropyl)octahydropyrrolo[3,4-b]pyrrole], for which, at Rat M4, the remaining activity at 30 µM came to 55.5% and the IC50 is more than 10 µM. Besides, on Human M4, the remaining activity at 30 µM is 15.1% and the IC50 was more than 10 µM.

`Cc1cnn(C)c1-c1ccc(N2CCC3CN(CC4C5CC6CC(C5)CC4C6)CC32)nn1` (stereo not shown) [Compound 10, 5-(adamantan-2-ylmethyl)-1-(6-(1,4-dimethyl-1H-pyrazol-5-yl)pyridazin-3-yl)octahydropyrrolo[3,4-b]pyrrole]: on Rat M4, the remaining activity at 30 µM was 4.82% and the IC50 turned out to be 1.89 µM. Moreover, at Human M4, the remaining activity at 30 µM is 4.12% and the IC50 was 0.453 µM.

Take `CC/C=C\CCCN1CC2CCN(c3ccc(-c4c(C)cnn4C)nn3)C2C1` (stereo not shown) [Compound 12, (Z)-1-(6-(1,4-dimethyl-1H-pyrazol-5-yl)pyridazin-3-yl)-5-(hept-4-en-1-yl)octahydropyrrolo[3,4-b]pyrrole]: at Rat M4, the remaining activity at 30 µM was found to be 45.2% and the IC50 is more than 10 µM. In addition, at Human M4, the remaining activity at 30 µM is 15.1% and the IC50 is more than 10 µM.

Consider `Cc1cnn(C)c1-c1ccc(N2CCC3CN(CCCC(C)(C)C)CC32)nn1` (stereo not shown) [Compound 2, 1-(6-(1,4-Dimethyl-1H-pyrazol-5-yl)pyridazin-3-yl)-5-(4,4-dimethylpentyl)octahydropyrrolo[3,4-b]pyrrole], for which, at Rat M4, the remaining activity at 30 µM worked out at 6.85% and the IC50 turned out to be 1.5 µM. Besides, at Human M4, the remaining activity at 30 µM amounted to 3.83% and the IC50 stood at 0.647 µM.

With `Cc1cnn(C)c1-c1ccc(N2CCC3CN(CC4CCOCC4)CC32)nn1` (stereo not shown) [Compound 22, 1-(6-(1,4-dimethyl-1H-pyrazol-5-yl)pyridazin-3-yl)-5-((tetrahydro-2H-pyran-4-yl)methyl)octahydropyrrolo[3,4-b]pyrrole], at Rat M4, the remaining activity at 30 µM was determined as 69.7% and the IC50 is more than 10 µM. In addition, at Human M4, the remaining activity at 30 µM is 36.1% and the IC50 was more than 10 µM.

In the case of `Cc1cccnc1CN1CC2CCN(c3ccc(-c4c(C)cnn4C)nn3)C2C1` (stereo not shown) [Compound 4, 1-(6-(1,4-dimethyl-1H-pyrazol-5-yl)pyridazin-3-yl)-5-((3-methylpyridin-2-yl)methyl)octahydropyrrolo[3,4-b]pyrrole], at Rat M4, the remaining activity at 30 µM came to 63.1% and the IC50 was more than 10 µM. On Human M4, the remaining activity at 30 µM is 26.2% and the IC50 was more than 10 µM.

Consider `Fc1ccc(-c2ccc(N3CCC4CN(CC56CC7CC(CC(C7)C5)C6)CC43)nn2)c(Cl)c1` (stereo not shown) [Compound 18, 5-(adamantan-1-ylmethyl)-1-(6-(2-chloro-4-fluorophenyl)pyridazin-3-yl)octahydropyrrolo[3,4-b]pyrrole], for which, at Rat M4, the remaining activity at 30 µM came out at 36.4% and the IC50 is more than 10 µM. On Human M4, the remaining activity at 30 µM is 12% and the IC50 was more than 10 µM.

Consider `Cc1nn(C)cc1-c1ccc(N2CCC3CN(CC45CC6CC(CC(C6)C4)C5)CC32)nn1` (stereo not shown) [Compound 16, 5-(adamantan-1-ylmethyl)-1-(6-(1,3-dimethyl-1H-pyrazol-4-yl)pyridazin-3-yl)octahydropyrrolo[3,4-b]pyrrole], for which, at Rat M4, the remaining activity at 30 µM is 4.09% and the half-maximal inhibitory concentration (IC50) is 0.753 µM. Moreover, on Human M4, the remaining activity at 30 µM was determined as 4.02% and the IC50 came out at 0.191 µM.

For the compound `Cc1cnn(C)c1-c1ccc(N2CC[C@@H]3CN(CC45CC6CC(CC(C6)C4)C5)C[C@@H]32)nn1` [Compound 21, (3aR,6aR)-5-(adamantan-1-ylmethyl)-1-(6-(1,4-dimethyl-1H-pyrazol-5-yl)pyridazin-3-yl)octahydropyrrolo[3,4-b]pyrrole], at Rat M4, the remaining activity at 30 µM came out at 3.71% and the IC50 was 0.601 µM. Moreover, on Human M4, the remaining activity at 30 µM worked out at 4.08% and the IC50 was found to be 0.147 µM.

On to `Cc1cnn(C)c1-c1ccc(N2CCC3CN(CCCc4ccccc4)CC32)nn1` (stereo not shown) [Compound 7, 1-(6-(1,4-dimethyl-1H-pyrazol-5-yl)pyridazin-3-yl)-5-(3-phenylpropyl)octahydropyrrolo[3,4-b]pyrrole], for which the remaining activity at 30 µM at Rat M4 was found to be 26.2%; at Human M4, 6.12%. Besides, the figures for the IC50 on Rat M4 and at Human M4 were more than 10 µM and 1.43 µM, respectively.

For `CCCCCCN1CC2CCN(c3ccc(-c4c(C)cnn4C)nn3)C2C1` (stereo not shown) [Compound 13, 1-(6-(1,4-dimethyl-1H-pyrazol-5-yl)pyridazin-3-yl)-5-hexyloctahydropyrrolo[3,4-b]pyrrole], the remaining activity at 30 µM was found to be 28.4% on Rat M4 and 7.23% on Human M4. For the same compound, the IC50 on Rat M4 was more than 10 µM; at Human M4, 2.15 µM.

`Cc1cnn(C)c1-c1ccc(N2CCC3CN(CC4CCN(Cc5ccccc5)CC4)CC32)nn1` (stereo not shown) [Compound 8, 5-((1-benzylpiperidin-4-yl)methyl)-1-(6-(1,4-dimethyl-1H-pyrazol-5-yl)pyridazin-3-yl)octahydropyrrolo[3,4-b]pyrrole]: at Rat M4, the remaining activity at 30 µM was found to be 32.4% and the IC50 was more than 10 µM. For the same compound, on Human M4, the remaining activity at 30 µM turned out to be 6.61% and the IC50 worked out at 3.38 µM.
